“And” between values parts separate entries of the source, which are not always exact repeats. Identical values can stand only once.
How the values were obtained:
in vitro = conditions: human
Description: (§1) The T-acute lymphoblastic leukemia cell line, CCRF-CEM (CCL-119™), and a non-cancerous cell, WIL2-NS (CRL-8155™), were purchased from the American Type Culture Collection (ATCC). Both are suspension types of cells and were cultured in Roswell Park Memorial Institute Medium 1640 (RPMI-1640) (Sigma-Aldrich), supplemented with 10% Fetal Bovine Serum (FBS) (Capricorn Scientific) and 1% penicillin-streptomycin (Nacalai Tesque) to obtain the complete growth medium and were incubated at 37 °C with a 5% CO2 incubator. Both suspension cells are used for tests when the cells’ passage becomes passage 3–10 (maximum).
(§2) All stock solutions of the organotin (IV) dithiocarbamate compounds were prepared at 10 mM and dissolved in dimethyl sulphoxide (DMSO) (ChemAR®). The stock solutions were stored at 4°C; fresh dilutions were made by adding the RPMI-1640 medium before the experiment. The dilution is carried out using the serial dilution method to obtain the desired concentrations, which are 5 µM, 2.5 µM, 1.25 µM, 0.63 µM, 0.32 µM, and 0.16 µM in this study. Vincristine (VCR) is used as a positive control in this study.
(§3) Both CCL-119 and WIL2-NS cells were seeded in a 96-well plate at a final concentration of 5 x 10^5 cells/well and treated with 5 µM, 2.5 µM, 1.25 µM, 0.63 µM, 0.32 µM, and 0.16 µM of organotin (IV) dithiocarbamate compound for 24 hours at 37°C with 5% CO2. VCR was used as a positive control in this study, while cells without treatment were used as a negative control. After 24 hours of exposure, 20 µL of MTT (Merck) salt solution was added into each well and incubated for another 4 hours. The plate was wrapped with aluminium foil as MTT salt is light sensitive. After 4 hours, the purple crystal formazan was formed. All the medium was removed carefully from each well, and 200 µL DMSO was added to each well to dissolve the purple formazan crystal. Then, the plates were incubated for an additional 15 minutes. The results were analyzed and recorded using an ELISA microplate reader at 570 nm. The data was then plotted into a graph, and IC50 values were determined.
(§4) The selectivity index (SI) is determined by dividing the cytotoxic activity (IC50 value) of each compound on a non-cancerous cell line (WIL2-NS) by the leukemia cell line (CCL-119). […] WIL2- NS cell lines were selected as the comparator because it is a non-cancerous human B lymphoblast cell line, which is like CCL-119 (T-lymphoblastic leukemia), derived from lymphocytes. This choice ensures that comparisons are made between biologically similar cell types, minimizing variability that could arise from differences in tissue origin or lineage.

CCL-119 cells [1] = assay: MTT cytotoxicity assay; conditions: for Selectivity Index (SI): IC50 WIL2-NS / IC50 CCL-119, 24 hours
Description: as §1, §2, §3, §4

[2] = Mode of cell death, Annexin V-FITC/PI staining (flow cytometry); type: cell-based; conditions: human, Viable (Q3)
Description: (§5) The mode of cell death can be observed through the Annexin V-FITC/PI staining (BD, USA). The result of this test is either apoptosis or necrosis. […] VCR was used as a positive control, while cells without any treatment were used as a negative control. Then, the plate was incubated for 24 hours. After the incubation, the cell suspension in each well was collected into different Eppendorf tubes. The tubes were then centrifuged for 5 minutes at 1500 rpm at 4°C. After the centrifuge, the supernatant in the tubes was removed, and the cell pellets were washed twice with cold PBS. Then, centrifuge the tubes again and remove the supernatant. Next, 100 µL of Annexin V binding buffer was resuspended in each tube, and 5 µL Annexin V-FITC was pipetted into the tube to stain the cells for 15 minutes at room temperature, dark. After that, 5 µL of propidium iodide was piped into the tube for 5 minutes. The staining process is done in dark conditions. Lastly, the sample was transferred into the Falcon tube, and each tube was resuspended in 400 µL of Annexin V binding buffer. The sample was analyzed using a flow cytometer (BD FACS Canto II) within one hour.

CCL-119 cells [3] = assay: as above; type: cell-based
Description: as §5

CCL-119 cells [4] = assay: Cell cycle analysis (PI/RNase staining); type: cell-based; conditions: 24 hours at IC50; single replicates n1-n3
Description: The cells were cultured and seeded in a 6-well plate at 1 x 10^6 cells/mL. VCR was used as a positive control, and untreated cells were used as a negative control in this assay. The concentration of the compounds and VCR was followed by IC50 values that were taken from the MTT assay.
After 24 hours of incubation, all cells in the plate were transferred to the Eppendorf tube and centrifuged for 5 minutes at 4°C at 1500 rpm. After centrifuging, the supernatant was removed, and cells were washed with 500 µL cold PBS three times. The pellet was fixed by using 70% ethanol overnight at −20°C. Next, the samples were stained with 500 µL of PI/RNase staining buffer and incubated for 15 minutes. The samples were then transferred into Falcon tubes. The data was recorded using a flow cytometer and analyzed using ModFit LT software.

CCL-119 cells [5] = assay: Alkaline comet assay; type: cell-based; conditions: 1 hour of exposure
Description: VCR was used as a positive control, and untreated cells were used as a negative control in this assay. The cells were incubated for 1 hour. After incubation, cells in each well were transferred to the Eppendorf tube to centrifuge for 5 minutes at 4°C by using a refrigerated microcentrifuge. The supernatant was removed, and the samples were washed with 1 mL of cold PBS. This process was repeated 3 times. After completion of the process, the supernatant was removed, and the pellet was left for a while on top of the ice while preparing the slide.
About 140 µL of normal melting agar (NMA) is pipetted on top of the fully frosted slide, and a cover slip is put on the agar for 5 minutes or until the agar fully solidifies. After that, the cover slip was removed, and 80 µL of low melting agar (LMA) was added to an Eppendorf tube containing the pellet of cells. The suspension was then transferred into a frosted slide with NMA agar. The cover slip was then put back on top of the frosted slide for 10 minutes or until dry. Next, the slide was transferred into a Coplin jar that contained lysis buffer solution and Triton X-100. The slides were then incubated at 4°C overnight. The slides were arranged on an electrophoresis tank filled with electrophoresis buffer for 20 minutes. Electrophoresis is done for another 20 minutes at 25 V with 300 mA. The slides were washed with a neutralization buffer solution 3 times at a 5-minute time interval. Finally, 30 µL of ethidium bromide (50 µg/mL) was added, and the slide was observed by using fluorescence microscopy (OLYMPUS BX51TR). CometScore software is used to analyze the DNA damage of the cells. The comet assay was performed under alkaline conditions (pH > 13) to detect both single- and double-strand DNA breaks.

WIL2-NS cells = test system: WIL2-NS cells; parameters: method as in Rasli et al. (2023); conditions: non-cancerous cells; 24 hours of exposure; graph referred to earlier paper; ref Rasli et al. (2023); cited from earlier work
[6] = 24 hours at IC50, single replicates n1-n3

Structure (SMILES): CC[C@]1(O)C[C@H]2CN(CCc3c([nH]c4ccccc34)[C@@](C(=O)OC)(c3cc4c(cc3OC)N(C=O)[C@H]3[C@@](O)(C(=O)OC)[C@H](OC(C)=O)[C@]5(CC)C=CCN6CC[C@]43[C@@H]65)C2)C1 [VCR, Vincristine, reference compound]
- viability at 24 h, 0.63 µM (in vitro; cell viability at 0.63 µM): 50.6%
- viability at 24 h, 1.25 µM (in vitro; cell viability at 1.25 µM): 46.3%
- viability at 24 h, 5 µM (in vitro; cell viability at 5.00 µM): 41.6%
- IC50 (CCL-119 cells [1]; 24 h, read-out: IC50 (µM) CCL-119): 1.82 ± 1.53 µM
- Selectivity Index (SI) (CCL-119 cells [1]): below 2
- Selectivity Index (SI) (CCL-119 cells [1]; listed as Vincristine (VCR)): 1.59
- viability at 24 h [2]: 44.4%
- Early Apoptosis (Q4) (CCL-119 cells [3]; [6]): 39.2% and 38.7% and 37.4%
- Late Apoptosis (Q2) (CCL-119 cells [3]; [6]): 19% and 17.2% and 17.9%
- Necrosis (Q1) (CCL-119 cells [3]; [6]): 0.45% and 0.54% and 0.51%
- cell death through apoptosis (population of cells) (CCL-119 cells [3]; 24 hours, treated at IC50, early + late apoptosis): 56.46%
- cells in G0/G1 phase (CCL-119 cells [4]): 36.70% and 30.32% and 29.02%
- cells in G2/M phase (CCL-119 cells [4]): 5.35% and 8.00% and 3.69%
- cells in S phase (CCL-119 cells [4]): 57.95% and 61.68% and 67.28%
- Tail moment (CCL-119 cells [5]; mean ± SEM): 4.17 ± 0.74 A.U
- percentage of DNA intensity in the tail (CCL-119 cells [5]; mean ± SEM): 8.48 ± 1.09%
- % DNA intensity (CCL-119 cells [5]; single replicates n1-n3): 6.493% and 8.677% and 10.2647%
- Tail moment (CCL-119 cells [5]; single replicates n1-n3): 2.837 A.U and 4.286 A.U and 5.38 A.U
- IC50 (WIL2-NS cells): 2.89 ± 0.03 µM

Source: publication PMC12338828, “Evaluation of organotin (IV) dithiocarbamate compounds as potential anti-leukemia agents towards CCRF-CEM (CCL-119) cell line: Cytotoxic, apoptotic, cell cycle and genotoxic study” (PLOS One, 2025)
